# Molecular target: T1, EGFR (L858R & T790M) (Homo sapiens, UniProt P00533, L858R/T790M)
# T1 construct: GST; purchased Proqinase
# Experiment: EGFR (L858R & T790M) inhibition assay, HTRF method
# Conditions: biochemical HTRF; EGFR (T790M/L858R) 2.5 nM, ATP 5 μM, 60 min room temperature
# Method: Example 25: Biological Activity: EGFR T790M Assay Protocol
# The objective of the experiment is to find the IC50 for the compounds using HTRF method.
# Reagents for Enzyme Assay:
# 1. Enzyme Assay Buffer: 60 mM HEPES (pH 7.4), 50 mM NaCl, 20 mM MgCl2, 5 mM MnCl2, filter using 0.2 µm pore size, store at 4° C.
# Supplements (add fresh to the enzyme buffer): Make 1M DTT stock, 5% BSA stock and 0.1M Na3OV4 stored at 4° C. Enzyme assay buffer 50 ml, 1 M DTT 100 μl, 5% BSA 500 μl, 0.1M Na3OV4 50 μl.
# 2. GST-hEGFR (L858R), active: EGFR (T790M/L858R), active (Proqinase), 3.6 μM stock; 2.5 nM in final assay.
# 3. Gastrin Precusor-Biotinylated: Gastrin precursor (Tyr87) biotinylated peptide (EEAY*GWM), Cell Signaling Tech 1310, Lot-7, Want final 0.5 μM in assay
# 4. ATP: 10 mM stock in 100 μl Enzyme assay buffer pH 7.4 prepared freshly, want 5 μM in final assay.
# 5. Test compounds: Dissolve powders in 100% DMSO to a final stock concentration of 10 mM (volume in μL to add for 10 mM=mg powder×10^5/MW). Final comp concentration in the assay plate is starting at 10 μM.
# 1. HTRF buffer: 50 mM Tris-HCl, pH-7.5, 100 mM NaCl, 0.1% BSA, 0.05% Tween20, 0.5 mM EDTA, filter using 0.2 µm pore size, store at 4° C.
# Phycolink® Streptavidin-Allophycocyanin (SA-APC) Prozyme, Cat. #PJ25S, Lot #896 085, 2.06 mg/mL, APC concentration is 11.6 μM, streptavidin concentration is 15.5 μM. Want 12 nM final in assay (based on streptavidin concentration).
# 2. Europium-W1024-PT-66 Anti Phospho Tyrosine Antibody: Perkin Elmer (AD0068), monoclonal IgG1 that recognizes phospho tyrosine peptide 100 μg/ml stock. Want 0.1 nM final in assay.
# • 1. Make the compound dilution by TECAN as per the above scheme. • 2. Add 16 μl of diluted compound to the assay plate by using TECAN • 3. Add 10 μl of enzyme mix to each well except mins. • 4. Add 20 μl of substrate and ATP mix into each well of the assay plate manually. • 5. Incubate the plate at room temperature for 60 min with shaking. • 6. Meanwhile prepare the HTRF mix and add 75 μl to the HTRF plate. • 7. When the incubation is over, transfer 10 μl of the reaction mixture to the HTRF assay plate and incubate for 30 min at room temperature with shaking. • 8. Take the reading in Pherastar (ext 337 nm, em 665 & 620 nm). • 9. Analyze the results using Graphpad prism after calculation the z factor, signal window and % inhibition to get the IC50.
# Compounds having IC50<10 nM are designated as “A”; 10-100 nM are designated as “B”; and >100 nM as “C”.
# T1 sequence (P00533 25-1210 T790M/L858R): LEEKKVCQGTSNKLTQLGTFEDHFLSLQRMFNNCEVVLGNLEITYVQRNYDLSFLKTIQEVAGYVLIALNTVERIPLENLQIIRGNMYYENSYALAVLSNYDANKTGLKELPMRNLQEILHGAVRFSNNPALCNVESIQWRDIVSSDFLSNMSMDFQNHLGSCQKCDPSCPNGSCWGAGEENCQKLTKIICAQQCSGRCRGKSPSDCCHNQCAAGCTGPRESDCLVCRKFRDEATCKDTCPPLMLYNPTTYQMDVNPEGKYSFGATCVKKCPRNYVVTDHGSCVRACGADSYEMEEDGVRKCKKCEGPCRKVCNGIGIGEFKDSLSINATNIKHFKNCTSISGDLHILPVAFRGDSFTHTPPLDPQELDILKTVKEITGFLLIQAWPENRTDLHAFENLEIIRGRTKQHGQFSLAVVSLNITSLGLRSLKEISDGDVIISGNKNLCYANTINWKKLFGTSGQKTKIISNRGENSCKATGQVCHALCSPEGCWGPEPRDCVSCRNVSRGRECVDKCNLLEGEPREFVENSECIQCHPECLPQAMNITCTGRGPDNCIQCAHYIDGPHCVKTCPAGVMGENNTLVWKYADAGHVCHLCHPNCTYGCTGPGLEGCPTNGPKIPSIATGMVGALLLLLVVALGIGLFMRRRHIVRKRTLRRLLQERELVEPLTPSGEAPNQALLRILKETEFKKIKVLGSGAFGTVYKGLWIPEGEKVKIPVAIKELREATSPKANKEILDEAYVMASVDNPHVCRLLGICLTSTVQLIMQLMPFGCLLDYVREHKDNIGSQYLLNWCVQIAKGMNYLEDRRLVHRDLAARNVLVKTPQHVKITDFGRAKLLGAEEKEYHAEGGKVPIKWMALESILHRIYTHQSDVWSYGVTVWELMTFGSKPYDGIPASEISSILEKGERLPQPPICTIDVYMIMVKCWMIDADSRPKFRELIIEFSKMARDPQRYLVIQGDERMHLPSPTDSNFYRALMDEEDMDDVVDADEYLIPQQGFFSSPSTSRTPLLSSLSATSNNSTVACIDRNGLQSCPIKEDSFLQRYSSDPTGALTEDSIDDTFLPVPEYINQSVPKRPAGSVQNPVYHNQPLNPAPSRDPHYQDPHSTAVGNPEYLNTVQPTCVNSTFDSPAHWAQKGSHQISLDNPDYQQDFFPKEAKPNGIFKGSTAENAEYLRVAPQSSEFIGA
row,SMILES,IC50 [nM]
1,"CN(C)C/C=C/C(=O)NC1CCCC(Nc2nc(Nc3cnn(C)c3)ncc2Cl)C1 (stereo not shown) [Compound I-101, (E)-N-(3-((5-chloro-2-((1-methyl-1H-pyrazol-4-yl)amino)pyrimidin-4-yl)amino)cyclohexyl)-4-(dimethylamino)but-2-enamide]",> 100
2,"C=CC(=O)Nc1ccc(F)c(Nc2nc(Nc3ncc(C#N)s3)ncc2Cl)c1 [Compound I-121, N-(3-((5-chloro-2-((5-cyanothiazol-2-yl)amino)pyrimidin-4-yl)amino)-4-fluorophenyl)acrylamide]",> 100
3,"C=CC(=O)Nc1cccc(Nc2nc(Nc3cnn(C4CCCC(O)C4)c3)ncc2Cl)c1 (stereo not shown) [Compound I-38, N-(3-((5-chloro-2-((1-(3-hydroxycyclohexyl)-1H-pyrazol-4-yl)amino)pyrimidin-4-yl)amino)phenyl)acrylamide]",> 100
4,"C=CC(=O)NC1CCCC(Nc2nc(Nc3cnn(CCN(C)C)c3)ncc2Cl)C1 (stereo not shown) [Compound I-99, N-(3-((5-chloro-2-((1-(2-(dimethylamino)ethyl)-1H-pyrazol-4-yl)amino)pyrimidin-4-yl)amino)cyclohexyl)acrylamide]",> 100
5,"C=CC(=O)Nc1cccc(Nc2nc(Nc3nc(C)cs3)ncc2Cl)c1 [Compound I-124, N-(3-((5-chloro-2-((4-methylthiazol-2-yl)amino)pyrimidin-4-yl)amino)phenyl)acrylamide]",10 to 100
6,"C=CC(=O)Nc1cccc(Oc2nc(Nc3cnn(CC(C)(C)O)c3)ncc2Cl)c1 [Compound I-81, N-(3-((5-chloro-2-((1-(2-hydroxy-2-methylpropyl)-1H-pyrazol-4-yl)amino)pyrimidin-4-yl)oxy)phenyl)acrylamide]",> 100
7,"C=CC(=O)Nc1cccc(Nc2nc(Nc3ncc(C)s3)ncc2Cl)c1 [Compound I-123, N-(3-((5-chloro-2-((5-methylthiazol-2-yl)amino)pyrimidin-4-yl)amino)phenyl)acrylamide]",10 to 100
8,"C=CC(=O)Nc1cc(Nc2nc(Nc3cnn(C4CCN(C)CC4)c3)ncc2Cl)ccc1F [Compound I-67, N-(5-((5-chloro-2-((1-(1-methylpiperidin-4-yl)-1H-pyrazol-4-yl)amino)pyrimidin-4-yl)amino)-2-fluorophenyl)acrylamide]",10 to 100
9,"C=CC(=O)Nc1cccc(Nc2nc(Nc3cnn(C4CCN(C)CC4)c3)ncc2C)c1 [Compound I-13, N-(3-((5-methyl-2-((1-(1-methylpiperidin-4-yl)-1H-pyrazol-4-yl)amino)pyrimidin-4-yl)amino)phenyl)acrylamide]",10 to 100
10,"C=CC(=O)Nc1cccc(Nc2nc(Nc3nnc(C(F)(F)F)s3)ncc2Cl)c1 [Compound I-44, N-(3-((5-chloro-2-((5-(trifluoromethyl)-1,3,4-thiadiazol-2-yl)amino)pyrimidin-4-yl)amino)phenyl)acrylamide]",> 100
11,"CN1CCC(n2cc(Nc3ncc(Cl)c(Nc4cccc(NC(=O)C=C5CCC(F)(F)CC5)c4)n3)cn2)CC1 [Compound I-25, N-(3-((5-chloro-2-((1-(1-methylpiperidin-4-yl)-1H-pyrazol-4-yl)amino)pyrimidin-4-yl)amino)phenyl)-2-(4,4-difluorocyclohexylidene)acetamide]",> 100
12,"C=CC(=O)Nc1cccc(Nc2nc(Nc3cnn(C4CCC(O)C4)c3)ncc2F)c1 (stereo not shown) [Compound I-37, N-(3-((5-fluoro-2-((1-(3-hydroxycyclopentyl)-1H-pyrazol-4-yl)amino)pyrimidin-4-yl)amino)phenyl)acrylamide]",> 100
13,"CN(C)C/C=C/C(=O)Nc1cccc(Nc2nc(Nc3cnn(C4CCN(C)CC4)c3)ncc2Cl)c1 [Compound I-53, (E)-N-(3-((5-chloro-2-((1-(1-methylpiperidin-4-yl)-1H-pyrazol-4-yl)amino)pyrimidin-4-yl)amino)phenyl)-4-(dimethylamino)but-2-enamide]",> 100
14,"CN(C)C/C=C/C(=O)NCC1CCCC(Nc2nc(Nc3cnn(C)c3)ncc2Cl)C1 (stereo not shown) [Compound I-109, (E)-N-((3-((5-chloro-2-((1-methyl-1H-pyrazol-4-yl)amino)pyrimidin-4-yl)amino)cyclohexyl)methyl)-4-(dimethylamino)but-2-enamide]",> 100
15,"C=CC(=O)Nc1cccc(Nc2nc(Nc3c(C)nn(C4CCN(C)CC4)c3C)ncc2Cl)c1 [Compound I-8, N-(3-((5-chloro-2-((3,5-dimethyl-1-(1-methylpiperidin-4-yl)-1H-pyrazol-4-yl)amino)pyrimidin-4-yl)amino)phenyl)acrylamide]",> 100
16,"C=CC(=O)NC1CCCC(Oc2nc(Nc3cnn(C)c3)ncc2Cl)C1 (single isomer, unassigned) [I-89 (Isomer 2), N-(3-((5-chloro-2-((1-methyl-1H-pyrazol-4-yl)amino)pyrimidin-4-yl)oxy)cyclohexyl)acrylamide]",> 100
17,"C=CC(=O)Nc1cccc(Nc2nc(Nc3cnn(C4CCN(C)CC4)c3)ncc2C(F)(F)F)c1 [Compound I-14, N-(3-((2-((1-(1-methylpiperidin-4-yl)-1H-pyrazol-4-yl)amino)-5-(trifluoromethyl)pyrimidin-4-yl)amino)phenyl)acrylamide]",> 100
18,"C=CC(=O)Nc1cc(Nc2nc(Nc3cnn(C)c3)ncc2Cl)c(F)cc1F [Compound I-68, N-(5-((5-chloro-2-((1-methyl-1H-pyrazol-4-yl)amino)pyrimidin-4-yl)amino)-2,4-difluorophenyl)acrylamide]",10 to 100

# Next, values leading:
row,IC50 [nM],SMILES
1,> 100,"C=CC(=O)NC1CCC(Nc2nc(Nc3cnn(C)c3)ncc2Cl)C1 (stereo not shown) [Compound I-93, N-(3-((5-chloro-2-((1-methyl-1H-pyrazol-4-yl)amino)pyrimidin-4-yl)amino)cyclopentyl)acrylamide]"
2,> 100,"C=CC(=O)N[C@H]1CCCC[C@@H](Nc2nc(Nc3cnn(C)c3)ncc2Cl)C1 (single isomer, unassigned) [I-112 (Isomer 1)]"
3,> 100,"C=CC(=O)N1CCCC(CNc2nc(Nc3cnn(C)c3)ncc2Cl)C1 (stereo not shown) [II-9, 1-(3-(((5-chloro-2-((1-methyl-1H-pyrazol-4-yl)amino)pyrimidin-4-yl)amino)methyl)piperidin-1-yl)prop-2-en-1-one]"
4,> 100,"C=CC(=O)N1CCC(Oc2nc(Nc3cnn(C)c3)ncc2Cl)C1 (single isomer, unassigned) [II-11 (Enantiomer 2), 1-(3-((5-chloro-2-((1-methyl-1H-pyrazol-4-yl)amino)pyrimidin-4-yl)oxy)pyrrolidin-1-yl)prop-2-en-1-one]"
5,> 100,"CN(C)C/C=C/C(=O)N[C@@H]1CCC[C@@H](CNc2nc(Nc3cnn(C)c3)ncc2Cl)C1 (single isomer, unassigned) [I-102 (diastereomer 1)]"
6,> 100,"C=CC(=O)N1CCCC(Oc2nc(Nc3cnn(C)c3)ncc2Cl)C1 (single isomer, unassigned) [II-12 (Enantiomer 1), 1-(3-((5-chloro-2-((1-methyl-1H-pyrazol-4-yl)amino)pyrimidin-4-yl)oxy)piperidin-1-yl)prop-2-en-1-one]"
7,10 to 100,"C=CC(=O)N[C@H]1CCC[C@@H](Nc2nc(Nc3cnn(C)c3)ncc2Cl)C1 (single isomer, unassigned) [I-104 (Enantiomer 3)]"
8,> 100,"C=CC(=O)NCC1CCCC(Nc2nc(Nc3cnn(C)c3)ncc2Cl)C1 (stereo not shown) [Compound I-108, N-((3-((5-chloro-2-((1-methyl-1H-pyrazol-4-yl)amino)pyrimidin-4-yl)amino)cyclohexyl)methyl)acrylamide]"
9,> 100,"CN(C)C/C=C/C(=O)N1CCCC(Nc2nc(Nc3cnn(C)c3)ncc2Cl)C1 (single isomer, unassigned) [II-4 (Enantiomer 2), (E)-1-(3-((5-chloro-2-((1-methyl-1H-pyrazol-4-yl)amino)pyrimidin-4-yl)amino)piperidin-1-yl)-4-(dimethylamino)but-2-en-1-one]"
10,> 100,"C=CC(=O)N1CCC(Nc2nc(Nc3cnn(C)c3)ncc2Cl)C1 (racemic) [II-7 (Racemic), 1-(3-((5-chloro-2-((1-methyl-1H-pyrazol-4-yl)amino)pyrimidin-4-yl)amino)pyrrolidin-1-yl)prop-2-en-1-one]"

# Reference: US10273224B2, “Substituted pyrimidine compounds, compositions and medicinal applications thereof” (JUBILANT BIOSYS LIMITED, priority 2013, dated 2019)
